In ChEMBL document CHEMBL1201861, “Genomics of Drug Sensitity in Cancer screening data, Wellcome Trust Sanger Institute”:

Columns and labels:
Assay in all cases: cells
CaR-1 = format: functional, cell-based, Homo sapiens; settings: Homo sapiens, CaR-1;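 note: growth inhibition of human CaR-1 cancer cells, read out with a cell viability assay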
Description: SANGER: Inhibition of human CaR-1 cell growth in a cell viability assay.

DB = format: functional, cell-based; settings: Homo sapiens
Description: SANGER: Inhibition of human DB cell growth in a cell viability assay.

GCIY = format: functional, cell-based, Homo sapiens; settings: Homo sapiens, GCIY;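 note: growth inhibition of the human GCIY cell line, read out by a cell viability assay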
Description: SANGER: Inhibition of human GCIY cell growth in a cell viability assay.

IST-MEL1 = format: functional, cell-based, Homo sapiens; settings: Homo sapiens, IST-MEL1;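 note: growth inhibition of the cell line, read out with a cell viability assay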
Description: SANGER: Inhibition of human IST-MEL1 cell growth in a cell viability assay.

J82 = format: functional, cell-based; settings: Homo sapiens;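 note: growth inhibition of J82 cells, read out with a cell viability assay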
Description: SANGER: Inhibition of human J82 cell growth in a cell viability assay.

KINGS-1 = format: functional, cell-based, Homo sapiens; settings: Homo sapiens, KINGS-1;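 note: cell viability assay measuring suppression of KINGS-1 cell growth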
Description: SANGER: Inhibition of human KINGS-1 cell growth in a cell viability assay.

KYSE-410 = format: functional, cell-based, Homo sapiens; settings: Homo sapiens, KYSE-410;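 note: growth inhibition of KYSE-410 cells, measured through a cell viability readout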
Description: SANGER: Inhibition of human KYSE-410 cell growth in a cell viability assay.

KYSE-70 cell line = format: functional, cell-based, Homo sapiens; settings: Homo sapiens, KYSE-70;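 note: cell viability assay read-out, with IC50 expressing suppression of KYSE-70 cell growth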
Description: SANGER: Inhibition of human KYSE-70 cell growth in a cell viability assay.

L-428 = format: functional, cell-based; settings: Homo sapiens
Description: SANGER: Inhibition of human L-428 cell growth in a cell viability assay.

LB2518-MEL = format: functional, cell-based, Homo sapiens; settings: Homo sapiens, LB2518-MEL;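 note: growth inhibition of human LB2518-MEL cells, measured with a cell viability assay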
Description: SANGER: Inhibition of human LB2518-MEL cell growth in a cell viability assay.

LCLC-97TM1 = format: functional, cell-based, Homo sapiens; settings: Homo sapiens, LCLC-97TM1;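 note: cell viability assay measuring growth inhibition of human LCLC-97TM1 cells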
Description: SANGER: Inhibition of human LCLC-97TM1 cell growth in a cell viability assay.

LS-1034 = format: functional, cell-based, Homo sapiens; settings: Homo sapiens, LS-1034
Description: SANGER: Inhibition of human LS-1034 cell growth in a cell viability assay.

LU-134-A = format: functional, cell-based; settings: Homo sapiens
Description: SANGER: Inhibition of human LU-134-A cell growth in a cell viability assay.

Lu-65 = format: functional, cell-based; settings: Homo sapiens;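 note: growth inhibition of Lu-65 cancer cells, read out by a cell viability assay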
Description: SANGER: Inhibition of human LU-65 cell growth in a cell viability assay.

LoVo = format: functional, cell-based; settings: Homo sapiens;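 note: growth inhibition of human LoVo cells, read out with a cell viability assay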
Description: SANGER: Inhibition of human LoVo cell growth in a cell viability assay.

M14 = format: functional, cell-based, Homo sapiens; settings: Homo sapiens, M14;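 note: growth inhibition of M14 cells, read out with a cell viability assay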
Description: SANGER: Inhibition of human M14 cell growth in a cell viability assay.

MDA-MB-175-VII = format: functional, cell-based, Homo sapiens; settings: Homo sapiens, MDA-MB-175-VII
MDA-MB-415 = format: functional, cell-based; settings: Homo sapiens
MKN-1 = format: functional, cell-based, Homo sapiens; settings: Homo sapiens, MKN-1;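 note: growth inhibition of human MKN1 cells, read out by a cell viability measurement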
Description: SANGER: Inhibition of human MKN1 cell growth in a cell viability assay.

MKN-7 = format: functional, cell-based, Homo sapiens; settings: Homo sapiens, MKN-7;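 note: growth inhibition of MKN-7 cells, read out with a cell viability assay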
Description: SANGER: Inhibition of human MKN7 cell growth in a cell viability assay.

MN-60 = format: functional, cell-based; settings: Homo sapiens;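 note: growth inhibition of the MN-60 cell line, determined with a cell viability assay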
Description: SANGER: Inhibition of human MN-60 cell growth in a cell viability assay.

NB10 = format: functional, cell-based, Homo sapiens; settings: Homo sapiens, NB10;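 note: growth inhibition of NB10 cells, read out by a cell viability assay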
Description: SANGER: Inhibition of human NB10 cell growth in a cell viability assay.

NCI-H1838 = format: functional, cell-based, Homo sapiens; settings: Homo sapiens, NCI-H1838;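 note: growth inhibition of NCI-H1838 cells, determined with a cell viability readout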
Description: SANGER: Inhibition of human NCI-H1838 cell growth in a cell viability assay.

NCI-H446 = format: functional, cell-based; settings: Homo sapiens;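 note: growth inhibition of NCI-H446 cells determined by a cell viability assay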
Description: SANGER: Inhibition of human NCI-H446 cell growth in a cell viability assay.

NCI-H526 = format: functional, cell-based; settings: Homo sapiens;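 note: growth inhibition of the human NCI-H526 cell line, measured by a cell viability assay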
Description: SANGER: Inhibition of human NCI-H526 cell growth in a cell viability assay.

PA-1 = format: functional, cell-based, Homo sapiens; settings: Homo sapiens, PA-1;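 note: IC50 for suppression of PA-1 cell proliferation, determined with a cell viability read-out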
Description: SANGER: Inhibition of human PA-1 cell growth in a cell viability assay.

PFSK-1 = format: functional, cell-based, Homo sapiens; settings: Homo sapiens, PFSK-1;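 note: cell viability assay measuring how strongly compounds suppress growth of human PFSK-1 cells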
Description: SANGER: Inhibition of human PFSK-1 cell growth in a cell viability assay.

RERF-LC-MS = format: functional, cell-based, Homo sapiens; settings: Homo sapiens, RERF-LC-MS;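 note: growth inhibition of human RERF-LC-MS cells, read out by a cell viability assay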
Description: SANGER: Inhibition of human RERF-LC-MS cell growth in a cell viability assay.

RT-112 = format: functional, cell-based, Homo sapiens; settings: Homo sapiens, RT-112
Description: SANGER: Inhibition of human RT-112 cell growth in a cell viability assay.

SCC-15 = format: functional, cell-based, Homo sapiens; settings: Homo sapiens, SCC-15;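 note: growth inhibition of SCC-15 cells, read out with a cell viability assay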
Description: SANGER: Inhibition of human SCC-15 cell growth in a cell viability assay.

SK-N-DZ = format: functional, cell-based, Homo sapiens; settings: Homo sapiens, SK-N-DZ;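 note: growth inhibition of the cancer cell line, read out through a viability assay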
Description: SANGER: Inhibition of human SK-N-DZ cell growth in a cell viability assay.

SW1088 = format: functional, cell-based, Homo sapiens; settings: Homo sapiens, SW1088;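 note: growth inhibition of human SW1088 cells, read out by a cell viability assay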
Description: SANGER: Inhibition of human SW1088 cell growth in a cell viability assay.

SW948 = format: functional, cell-based, Homo sapiens; settings: Homo sapiens, SW948;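 note: growth inhibition of SW948 cells, read out with a cell viability assay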
Description: SANGER: Inhibition of human SW948 cell growth in a cell viability assay.

SiHa = format: functional, cell-based, Homo sapiens; settings: Homo sapiens, SiHa;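 note: Viability-based readout of growth inhibition in SiHa cells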
Description: SANGER: Inhibition of human SiHa cell growth in a cell viability assay.

TCC-SUP = format: functional, cell-based, Homo sapiens; settings: Homo sapiens, TCC-SUP;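 note: growth inhibition of TCC-SUP cells, read out with a cell viability assay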
Description: SANGER: Inhibition of human TCCSUP cell growth in a cell viability assay.

786-0 = format: functional, cell-based, Homo sapiens; settings: Homo sapiens
Description: SANGER: Inhibition of human 786-0 cell growth in a cell viability assay.

A-427 = format: functional, cell-based, Homo sapiens; settings: Homo sapiens, A-427;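 note: growth inhibition of human A-427 cells, read out by a cell viability assay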
Description: SANGER: Inhibition of human A427 cell growth in a cell viability assay.

A498 = format: functional, cell-based, Homo sapiens; settings: Homo sapiens, A498;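 note: growth inhibition of human A498 cells, read out with a cell viability assay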
Description: SANGER: Inhibition of human A498 cell growth in a cell viability assay.

AN3-CA = format: functional, cell-based; settings: Homo sapiens;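 note: growth inhibition of human AN3-CA cells measured by a cell viability assay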
Description: SANGER: Inhibition of human AN3-CA cell growth in a cell viability assay.

BB49-HNC = format: functional, cell-based, Homo sapiens; settings: Homo sapiens, BB49-HNC;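 note: cell viability assay read-out, reported as inhibition of BB49-HNC cell growth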
Description: SANGER: Inhibition of human BB49-HNC cell growth in a cell viability assay.

BB65-RCC = format: functional, cell-based, Homo sapiens; settings: Homo sapiens, BB65-RCC;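 note: growth inhibition of the cell line, measured with a cell viability assay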
Description: SANGER: Inhibition of human BB65-RCC cell growth in a cell viability assay.

BCPAP = format: functional, cell-based, Homo sapiens; settings: Homo sapiens, BCPAP;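 note: growth inhibition of BCPAP cells, read out in a cell viability assay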
Description: SANGER: Inhibition of human BCPAP cell growth in a cell viability assay.

BPH-1 = format: functional, cell-based, Homo sapiens; settings: Homo sapiens, BPH-1;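 note: cell viability assay measuring growth inhibition of human BPH-1 cells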
Description: SANGER: Inhibition of human BPH-1 cell growth in a cell viability assay.

BT-474 = format: functional, cell-based, Homo sapiens; settings: Homo sapiens, BT-474
Description: SANGER: Inhibition of human BT-474 cell growth in a cell viability assay.

C32 = format: functional, cell-based, Homo sapiens; settings: Homo sapiens, C32;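 note: cell viability assay, with IC50 reflecting inhibition of C32 cell growth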
Description: SANGER: Inhibition of human C32 cell growth in a cell viability assay.

C3A = format: functional, cell-based, Homo sapiens; settings: Homo sapiens, C3A;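 note: growth inhibition of C3A human cells, quantified with a cell viability readout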
Description: SANGER: Inhibition of human C3A cell growth in a cell viability assay.

CAL-120 = format: functional, cell-based, Homo sapiens; settings: Homo sapiens, CAL-120;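 note: cell growth inhibition, read out as cell viability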
Description: SANGER: Inhibition of human CAL-120 cell growth in a cell viability assay.

U-118-MG = format: functional, cell-based, Homo sapiens; settings: Homo sapiens, U-118-MG
Description: SANGER: Inhibition of human U-118-MG cell growth in a cell viability assay.

U-266 = format: functional, cell-based; settings: Homo sapiens
Description: SANGER: Inhibition of human U-266 cell growth in a cell viability assay.

UO-31 = format: functional, cell-based; settings: Homo sapiens;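 note: cell viability assay measuring inhibition of cell growth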
Description: SANGER: Inhibition of human U031 cell growth in a cell viability assay.

CHP-212 = format: functional, cell-based, Homo sapiens; settings: Homo sapiens, CHP-212
Description: SANGER: Inhibition of human CHP-212 cell growth in a cell viability assay.

MFH-ino = format: functional, cell-based; settings: Homo sapiens;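 note: growth inhibition of human MFH-ino cells, read out by a cell viability assay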
Description: SANGER: Inhibition of human MFH-ino cell growth in a cell viability assay.

Structure (SMILES): O=C(c1cc(Cc2n[nH]c(=O)c3ccccc23)ccc1F)N1CCN(C(=O)C2CC2)CC1 [OLAPARIB]
- IC50 (CaR-1): > 5 µM
- IC50 (DB): 3.65 µM
- IC50 (GCIY): > 5 µM
- IC50 (IST-MEL1): > 5 µM
- IC50 (J82): > 5 µM
- IC50 (KINGS-1): > 5 µM
- IC50 (KYSE-410): > 5 µM
- IC50 (KYSE-70 cell line): > 5 µM
- IC50 (L-428): > 5 µM
- IC50 (LB2518-MEL): > 5 µM
- IC50 (LCLC-97TM1): > 5 µM
- IC50 (LS-1034): > 5 µM
- IC50 (LU-134-A): > 5 µM
- IC50 (Lu-65): > 5 µM
- IC50 (LoVo): > 5 µM
- IC50 (M14): > 5 µM
- IC50 (MDA-MB-175-VII): > 5 µM
- IC50 (MDA-MB-415): > 5 µM
- IC50 (MKN-1): > 5 µM
- IC50 (MKN-7): > 5 µM
- IC50 (MN-60): > 5 µM
- IC50 (NB10): > 5 µM
- IC50 (NCI-H1838): > 5 µM
- IC50 (NCI-H446): > 5 µM
- IC50 (NCI-H526): 3.87 µM
- IC50 (PA-1): 4.25 µM
- IC50 (PFSK-1): > 5 µM
- IC50 (RERF-LC-MS): > 5 µM
- IC50 (RT-112): > 5 µM
- IC50 (SCC-15): > 5 µM
- IC50 (SK-N-DZ): > 5 µM
- IC50 (SW1088): > 5 µM
- IC50 (SW948): > 5 µM
- IC50 (SiHa): > 5 µM
- IC50 (TCC-SUP): > 5 µM
- IC50 (786-0): > 5 µM
- IC50 (A-427): > 5 µM
- IC50 (A498): > 5 µM
- IC50 (AN3-CA): > 5 µM
- IC50 (BB49-HNC): > 5 µM
- IC50 (BB65-RCC): > 5 µM
- IC50 (BCPAP): > 5 µM
- IC50 (BPH-1): > 5 µM
- IC50 (BT-474): > 5 µM
- IC50 (C32): > 5 µM
- IC50 (C3A): > 5 µM
- IC50 (CAL-120): > 5 µM
- IC50 (U-118-MG): > 5 µM
- IC50 (U-266): > 5 µM
- IC50 (UO-31): > 5 µM
- IC50 (CHP-212): > 5 µM

Structure (SMILES): CC(=O)O[C@@H]1[C@@H](OC(C)=O)[C@@H](O)[C@H](Oc2c(-c3ccc(O)cc3)oc3cc(O)cc(O)c3c2=O)O[C@H]1C
- IC50 (CaR-1): > 10 µM
- IC50 (DB): > 10 µM
- IC50 (GCIY): > 10 µM
- IC50 (IST-MEL1): > 10 µM
- IC50 (J82): > 10 µM
- IC50 (KINGS-1): > 10 µM
- IC50 (KYSE-410): > 10 µM
- IC50 (KYSE-70 cell line): > 10 µM
- IC50 (L-428): > 10 µM
- IC50 (LB2518-MEL): > 10 µM
- IC50 (LCLC-97TM1): > 10 µM
- IC50 (LS-1034): > 10 µM
- IC50 (LU-134-A): > 10 µM
- IC50 (Lu-65): > 10 µM
- IC50 (LoVo): > 10 µM
- IC50 (M14): > 10 µM
- IC50 (MDA-MB-175-VII): > 10 µM
- IC50 (MDA-MB-415): > 10 µM
- IC50 (MFH-ino): > 10 µM
- IC50 (MKN-1): > 10 µM
- IC50 (MKN-7): > 10 µM
- IC50 (MN-60): > 10 µM
- IC50 (NB10): > 10 µM
- IC50 (NCI-H1838): > 10 µM
- IC50 (NCI-H446): > 10 µM
- IC50 (NCI-H526): > 10 µM
- IC50 (PA-1): > 10 µM
- IC50 (PFSK-1): > 10 µM
- IC50 (RERF-LC-MS): > 10 µM
- IC50 (RT-112): > 10 µM
- IC50 (SCC-15): > 10 µM
- IC50 (SK-N-DZ): > 10 µM
- IC50 (SW1088): > 10 µM
- IC50 (SW948): > 10 µM
- IC50 (TCC-SUP): > 10 µM
- IC50 (786-0): > 10 µM
- IC50 (A-427): > 10 µM
- IC50 (A498): > 10 µM
- IC50 (AN3-CA): > 10 µM
- IC50 (BB49-HNC): > 10 µM
- IC50 (BB65-RCC): > 10 µM
- IC50 (BCPAP): > 10 µM
- IC50 (BPH-1): > 10 µM
- IC50 (BT-474): > 10 µM
- IC50 (C32): > 10 µM
- IC50 (C3A): > 10 µM
- IC50 (CAL-120): > 10 µM
- IC50 (U-118-MG): > 10 µM
- IC50 (U-266): > 10 µM
- IC50 (UO-31): > 10 µM
- IC50 (CHP-212): > 10 µM
